Measured values: patent publication US7943624B2, “Pyridinylpyrazolopyrimidinone derivatives as PDE 7 inhibitors” (Asubio Pharma Co. Ltd., priority 2003, dated 2011)
Where “and” joins values, the source holds several entries; their conditions need not be identical. Equal values may be shown once.

Molecular target: PDE 4 (phosphodiesterase IV)
Test: PDE 4 inhibiting effect (Biological Test 2; 3H-cAMP hydrolysis by PDE 4 fraction from Balb/c mouse liver)
Type: biochemical, mice
Settings: PDE 4 active fraction from Balb/c mouse liver; 0.064 μM cAMP, 2 hours at 25° C.
Experimental: The PDE 4 (phosphodiesterase IV) inhibiting effect of the compounds of the present invention was performed by the following method, which was modified assay method described in Biochemical. Pharmacol. 48(6), 1219-1223 (1994).
(1) The active fraction of PDE 4 (phosphodiesterase IV) was obtained. That is, the livers obtained from three Balb/c mice (male, 12 weeks: obtainable from CLEA Japan, Inc.) were suspended with 30 mL of buffer solution B [20 mM of bis-tris, 5 mM of 2-mercaptoethnol, 2 mM of benzamidine, 2 mM of EDTA, 0.1 mM of 4-(2-aminoethyl)benzensulfonyl hydrochloride, 50 mM of sodium acetate; pH 6.5], then homogenized by Polytron® homogenizer. The homogenate were centrifuged under 25,000×G for 10 minutes at 4° C. The supernatant was separated and thus obtained supernatant was further centrifuged under 100,000×G for 60 minutes at 4° C., and then filtrated with 0.2pm filter to obtain the soluble fraction. […]
(3) The tested compound having desired concentration was reacted in the solution of 20 mM tris-HCl (pH 7.5), […], 100 μM of EDTA, 330 μg/mL of bovine serum albumin, 4 μg/mL of 5′-nucleotidase, 0.1 μCi of ^3H-cAMP (0.064 μM of cAMP), and storage solution of PDE 4 for 2 hours at 25° C. […] Further, Sephadex®-QAE was added to the obtained supernatant and the mixture was left at rest for 5 minutes, then, the radioactivity of the solution was measured. […]

| IC50 [µM] | SMILES |
| --- | --- |
| 0.98 | CNC1CCN(c2ccc(-c3nc4c(C)nn(C5CCCCC5)c4c(=O)[nH]3)c(OC)n2)CC1 [Compound 32] |
| 1.2 | CNC1CCN(c2ccc(-c3nc4c(c(C5CCCCC5)nn4C)c(=O)[nH]3)c(OC)n2)CC1 [Compound 26, 3-Cyclohexyl-6-{2-methoxy-6-[4-(methylamino)-1-piperidinyl]-3-pyridinyl}-1-methyl-1,5-dihydro-4H-pyrazolo[3,4-d]-pyrimidin-4-one] |

Molecular target: T1, PDE 7 (phosphodiesterase VII) (Homo sapiens, UniProt Q13946)
T1 construct: filtrated with 0.2 μm filter to obtain the soluble fraction; endogenous in cells; host or cells: MOLT-4 (ATCC CRL-1582); soluble fraction, HiTrap Q eluate at about 350 mM NaCl
Test: PDE 7 inhibiting effect (Biological Test 1; 3H-cAMP hydrolysis by PDE 7 fraction from MOLT-4 cells)
Type: biochemical
Settings: PDE 7 active fraction from MOLT-4 cells; 0.064 μM cAMP, 10 μM rolipram, 2 hours at 25° C.
Experimental: The PDE 7 (phosphodiesterase VII) inhibiting effect of the compounds of the present invention was performed by the following method, which was modified assay method described in Biochemical. Pharmacol. 48(6), 1219-1223 (1994).
(1) The active fraction of PDE 7 (phosphodiesterase VII) was obtained. That is, MOLT-4 (obtainable from ATCC as ATCC No. CRL-1582), which was cell line of human acute lymphoblastic lymphoma T cells, was incubated in RPMI1640 culture medium containing 10% fetal bovine serum to obtain 5×10^8 MOLT-4 cells. The cells were collected by centrifugation and suspended with 10 mL of buffer solution A 125 mM of tris-HCl, 5 mM of 2-mercaptoethnol, 2 mM of benzamidine, 2 mM of EDTA, 0.1 μM of 4-(2-aminoethyl)benzensulfonyl hydrochloride; pH 7.5], then homogenized by Polytron® homogenizer. The homogenate were centrifuged under 25,000×G for 10 minutes at 4° C. The supernatant was separated and thus obtained supernatant was further centrifuged under 100,000×G for 60 minutes at 4° C., and then filtrated with 0.2 μm filter to obtain the soluble fraction.
(2) The obtained soluble fraction was filled in equilibrium HiTrap Q column (5 mL×2) with buffer solution A, and phosphodiesterase fractions were eluted by 300 mL of buffer solution A with linear gradient from 0 to 0.8 M NaCl concentration. 5 ml each of 60 eluents were collected, and each eluents were examined for cyclic AMP metabolic activities of phosphodiesterase. The fraction eluting with about 350 mM NaCl concentration parts, where metabolic activities were not inactivated by 10 μM of rolipram (selective inhibitor for phosphodiesterase IV) and 10 μM of milrinone (selective inhibitor for phosphodiesterase III), were collected as storage solution for using to test PDE 7 inhibiting effect.
(3) The tested compound having desired concentration was reacted in the solution of 20 mM tris-HCl (pH 7.5), 1 mM of MgCl2, 100 μM of EDTA, 330 μg/mL of bovine serum albumin, 4 μg/mL of 5′-nucleotidase, 0.1 μCi of ^3H-cAMP (0.064 μM of cAMP), 10 μM of rolipram in storage solution of PDE 7 for 2 hours at 25° C. After the reaction, suspension of Sephadex®-QAE in 10 mM of HEPES-Na (pH 7.0) was added to the reaction mixture, and the mixture was left at rest for 5 minutes. Further, Sephadex®-QAE was added to the obtained supernatant and the mixture was leaved at rest for 5 minutes, then, the radioactivity of the solution was measured.
(4) IC50 was calculated as 50% inhibiting concentration of the metabolic activities of phosphodiesterase VII of the tested compound.

T1 sequence (Q13946 whole entry): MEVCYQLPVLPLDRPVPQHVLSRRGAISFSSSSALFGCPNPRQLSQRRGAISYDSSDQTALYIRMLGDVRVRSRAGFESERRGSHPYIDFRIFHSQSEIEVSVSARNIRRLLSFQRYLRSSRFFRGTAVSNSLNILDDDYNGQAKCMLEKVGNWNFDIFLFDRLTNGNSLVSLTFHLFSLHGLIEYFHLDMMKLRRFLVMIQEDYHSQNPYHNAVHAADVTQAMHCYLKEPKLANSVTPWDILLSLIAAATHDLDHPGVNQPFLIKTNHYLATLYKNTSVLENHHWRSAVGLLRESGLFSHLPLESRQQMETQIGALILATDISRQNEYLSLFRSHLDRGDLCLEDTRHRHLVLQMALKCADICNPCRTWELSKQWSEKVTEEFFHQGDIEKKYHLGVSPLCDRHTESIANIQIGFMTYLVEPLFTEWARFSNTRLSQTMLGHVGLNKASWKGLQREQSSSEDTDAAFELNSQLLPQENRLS

| IC50 | SMILES |
| --- | --- |
| ≤ 0.1 µM | CCOc1nc(N2CCC(NC)CC2)ccc1-c1nc2c(C)nn(C3CCCCC3)c2c(=O)[nH]1 [Compound 48, 1-Cyclohexyl-5-{2-ethoxy-6-[4-(methylamino)-1-piperidinyl]-3-pyridinyl}-3-methyl-1,6-dihydro-7H-pyrazolo[4,3-d]pyrimidin-7-one] |
| ≤ 0.1 µM | COc1nc(N2CCN(C)CC2)ccc1-c1nc2c(C)nn(C3CCCCC3)c2c(=O)[nH]1 [Compound 16, 1-Cyclohexyl-5-[2-methoxy-6-(4-methyl-1-piperazinyl)-3-pyridinyl]-3-methyl-1,6-dihydro-7H-pyrazolo[4,3-d]pyrimidin-7-one] |
| ≤ 0.1 µM | COc1nc(N2CCC(O)CC2)ccc1-c1nc2c(C)nn(C3CCCCC3)c2c(=O)[nH]1 [Compound 37, 1-Cyclohexyl-5-[6-(4-hydroxy-1-piperidinyl)-2-methoxy-3-pyridinyl]-3-methyl-1,6-dihydro-7H-pyrazolo[4,3-d]pyrimidin-7-one] |
| ≤ 0.1 µM | CCOc1nc(N2CCCN(C)CC2)ccc1-c1nc2c(C)nn(C3CCCCC3)c2c(=O)[nH]1 [Compound 44, 1-Cyclohexyl-5-[2-ethoxy-6-(4-methyl-1,4-diazepan-1-yl)-3-pyridinyl]-3-methyl-1,6-dihydro-7H-pyrazolo[4,3-d]pyrimidin-7-one] |
| ≤ 0.1 µM | COc1nc(N2CCOCC2)ccc1-c1nc2c(C)nn(C3CCCCC3)c2c(=O)[nH]1 [Compound 17, 1-Cyclohexyl-5-[2-methoxy-6-(4-morpholinyl)-3-pyridinyl]-3-methyl-1,6-dihydro-7H-pyrazolo[4,3-d]pyrimidin-7-one] |
| ≤ 0.1 µM and 0.0032 µM | CNC1CCN(c2ccc(-c3nc4c(C)nn(C5CCCCC5)c4c(=O)[nH]3)c(OC)n2)CC1 [Compound 32] |
| ≤ 0.1 µM | COc1nc(N2CCC(O)CC2)ccc1-c1nc2c(c(C3CCCCC3)nn2C)c(=O)[nH]1 [Compound 25, 3-Cyclohexyl-6-[6-(4-hydroxy-1-piperidinyl)-2-methoxy-3-pyridinyl]-1-methyl-1,5-dihydro-4H-pyrazolo[3,4-d]pyrimidin-4-one] |
| ≤ 0.1 µM | CCOc1nc(N2CCC(N(C)C)CC2)ccc1-c1nc2c(C)nn(C3CCCCC3)c2c(=O)[nH]1 [Compound 47, 1-Cyclohexyl-5-{6-[4-(dimethylamino)-1-piperidinyl]-2-ethoxy-3-pyridinyl]-3-methyl-1,6-dihydro-7H-pyrazolo[4,3-d]-pyrimidin-7-one] |
| ≤ 0.1 µM | COc1nc(N2CCN(C)CC2)ccc1-c1nc2c(c(C3CCCCC3)nn2C)c(=O)[nH]1 [Compound 20, 3-Cyclohexyl-6-[2-methoxy-6-(4-methyl-1-piperazinyl)-3-pyridinyl]-1-methyl-1,5-dihydro-4H-pyrazolo[3,4-d]pyrimidin-4-one] |
| ≤ 0.1 µM | COc1nc(N2CCC(N(C)C)CC2)ccc1-c1nc2c(C)nn(C3CCCCC3)c2c(=O)[nH]1 [Compound 33] |
| ≤ 0.1 µM | COc1nc(N2CCOCC2)ccc1-c1nc2c(c(C3CCCCC3)nn2C)c(=O)[nH]1 [Compound 21, 3-Cyclohexyl-6-[2-methoxy-6-(4-morpholinyl)-3-pyridinyl]-1-methyl-1,5-dihydro-4H-pyrazolo[3,4-d]pyrimidin-4-one] |
| ≤ 0.1 µM | COc1nc(N2CCC(NC(C)=O)CC2)ccc1-c1nc2c(c(C3CCCCC3)nn2C)c(=O)[nH]1 [Compound 29, N-{1-[5-(3-Cyclohexyl-1-methyl-4-oxo-4,5-dihydro-1H-pyrazolo[3,4-d]-pyrimidin-6-yl)-6-methoxy-2-piridinyl]-4-piperidinyl}acetamide] |
| ≤ 0.1 µM | COc1nc(S(=O)(=O)N2CCCN(C)CC2)ccc1-c1nc2c(c(C3CCCCC3)nn2C)c(=O)[nH]1 [Compound 36, 3-Cyclohexyl-6-{2-methoxy-6-[(4-methyl-1,4-diazepan-1-yl)sulfonyl]-3-pyridinyl}-1-methyl-1,5-dihydro-4H-pyrazolo[3,4-d]pyrimidin-4-one] |
| ≤ 0.1 µM and 0.0026 µM | CNC1CCN(c2ccc(-c3nc4c(c(C5CCCCC5)nn4C)c(=O)[nH]3)c(OC)n2)CC1 [Compound 26, 3-Cyclohexyl-6-{2-methoxy-6-[4-(methylamino)-1-piperidinyl]-3-pyridinyl}-1-methyl-1,5-dihydro-4H-pyrazolo[3,4-d]-pyrimidin-4-one] |
| ≤ 0.1 µM | COc1nc(N2CCCN(C)CC2)ccc1-c1nc2c(C)nn(C3CCCCC3)c2c(=O)[nH]1 [Compound 18, 1-Cyclohexyl-5-[2-methoxy-6-(4-methyl-1,4-diazepan-1-yl)-3-pyridinyl]-3-meth-1-1,6-dihydro-7H-pyrazolo[4,3-d]pyrimidin-7-one] |
| ≤ 0.1 µM | COc1nc(N2CCCN(C)CC2)ccc1-c1nc2c(c(C3CCCCC3)nn2C)c(=O)[nH]1 [Compound 22, 3-Cyclohexyl-6-[2-methoxy-6-(4-methyl-1,4-diazepan-1-yl)-3-pyridinyl]-1-methyl-1.5-dihydro-4H-pyrazolo[3,4-d]pyrimidin-4-one] |
| ≤ 0.1 µM | COc1nc(N2CCC(N(C)C)CC2)ccc1-c1nc2c(c(C3CCCCC3)nn2C)c(=O)[nH]1 [Compound 27, 3-Cyclohexyl-6-{6-[4-(dimethylamino)-1-piperidinyl]-2-methoxy-3-pyridinyl}-1-methyl-1.5-dihydro-4H-pyrazolo[3,4-d]-pyrimidin-4-one] |
| ≤ 0.1 µM | CCOc1nc(N2CCC(O)CC2)ccc1-c1nc2c(C)nn(C3CCCCC3)c2c(=O)[nH]1 [Compound 49, 1-Cyclohexyl-5-[2-ethoxy-6-(4-hydroxy-1-piperidinyl)-3-pyridinyl]-3-methyl-1,6-dihydro-7H-pyrazolo[4,3-d]pyrimidin-7-one] |
| ≤ 0.1 µM | COc1nc(N2CCC(N)CC2)ccc1-c1nc2c(c(C3CCCCC3)nn2C)c(=O)[nH]1 [Compound 28, 6-[6-(4-Amino-1-piperidinyl)-2-methoxy-3-pyridinyl]-3-cyclohexyl-1-methyl-1,5-dihydro-4H-pyrazolo[3,4-d]pyrimidin-4-one] |
| ≤ 0.1 µM | CCOc1nc(N2CCN(C)CC2)ccc1-c1nc2c(C)nn(C3CCCCC3)c2c(=O)[nH]1 [Compound 43] |
